In paper PMC3673472, “Structural and functional insight into the universal stress protein family” (Evolutionary Applications, 2013):

Columns and labels:
NE1028 = target: T1, NE1028 (Nitrosomonas europaea, UniProt Q82VN8); test: X-ray crystal structure of the complex ([…] Å); details: cocrystallised with 10 mM AMP, pH 7.0, then soaked with 10 mM AMP for 24 h; ATP-binding site
T1 construct: full-length, N-terminal His6-TEV tag cleaved; wild type (not SeMet) in the AMP complex; homodimer

AF0826 = target: T2, AF0826 (Archaeoglobus fulgidus, UniProt O29432); test: X-ray crystal structure of the complex ([…] Å); details: SeMet crystals (pH 5.5) soaked with a cocktail of adenine, adenosine, AMP, ADP, ATP, dAMP, cAMP, ADP-ribose; ligand identified from structure; ATP-binding site
T2 construct: gene AF_0826; N-terminal His6-TEV tag kept; selenomethionine-substituted; homodimer; strain printed only for AF1760 of the same species
T2 sequence (O29432 entry or part of it): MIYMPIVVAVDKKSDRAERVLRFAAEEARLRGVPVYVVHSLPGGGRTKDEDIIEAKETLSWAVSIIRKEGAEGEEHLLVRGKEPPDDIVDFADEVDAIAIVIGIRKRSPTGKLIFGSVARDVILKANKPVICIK

T1 sequence (Q82VN8 entry or part of it): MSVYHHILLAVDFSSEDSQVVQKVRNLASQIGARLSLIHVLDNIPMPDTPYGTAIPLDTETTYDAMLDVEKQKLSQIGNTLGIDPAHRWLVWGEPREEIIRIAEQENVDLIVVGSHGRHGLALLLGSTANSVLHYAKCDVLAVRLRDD

Q: How did the “X-ray crystal structure of the complex (2.00 Å)” value (NE1028) turn out when `Nc1ncnc2c1ncn2[C@@H]1O[C@H](COP(=O)(O)O)[C@@H](O)[C@H]1O` [AMP] was run?
A: The value was “Our structure of NE1028–AMP confirms that the protein can bind at least one molecule”.

Q: With `Nc1ncnc2c1ncn2[C@H]1C[C@H](O)[C@@H](COP(=O)(O)O)O1` [dAMP] as the compound, how does the “X-ray crystal structure of the complex (2.10 Å)” value (AF0826) read?
A: Its value is “we obtained the structure of AF0826 with dAMP bound in the vicinity”.
